Patent US9763960B2, “Wafer comprising steroid hormones” (LTS Lohmann Theraple-Systeme AG, priority 2005, dated 2017)

Experiment: i.v. administration of 0.5 mg MENT (reference for bioavailability)
Format: in vivo
Conditions: after i.v. admin. of 0.5 mg MENT

For C[C@@H]1CC2=CC(=O)CC[C@@H]2[C@H]2CC[C@]3(C)[C@@H](O)CC[C@H]3[C@@H]21 [MENT, 7α-methyl-19-nortestosterone], the “AUC(0-tlast) geomean dose-normalized” value was 4.98 ng·h/mL.
